Measured values reported in US10561846B2 (priority 2000, dated 2020).
Read-outs that look alike come from different tables or passages of the source.

How the values were obtained:
[1] = tested on: human macrophage cultures; test: TNF release from LPS-stimulated human macrophage cultures (TNF ELISA); assay type: cell-based; conditions: for EC50: Macrophage, human macrophages, LPS 100 ng/ml 4 h, n=9, read-out: E.C.50, effective concentration that inhibited 50% of the TNF response
TNF mRNA = test: RNase protection assay of TNF mRNA in LPS-stimulated macrophages; assay type: cell-based, human; conditions: agonist 100 µM, 5 min before 2 hour LPS 100 ng/ml (FIG. 2)
TNF = TNF immunohistochemistry of cell-associated TNF in human macrophage cultures; assay type: cell-based; conditions: ACh 100 µM, 5 min before LPS 100 ng/ml, fixed after 2 hours (FIG. 3)
Protocol: TNF immunohistochemistry was performed as follows. Human macrophages were differentiated as described above, and grown on glass chamber slides (Nunc, Naperville, Ill.). Slides were incubated in a blocking solution (1% BSA, 5% normal goat serum, 0.3% Triton X-100 in PBS) for 1 hour at room temperature and then incubated for 24 hours at 4° C. with a primary mouse anti-human TNF monoclonal antibody (Genzyme, Cambridge, Mass.) diluted 1:100 in PBS containing 0.3% Triton X-100, 0.1% BSA, and 3% normal goat serum. Washed sections were incubated for 2 hours with secondary biotinylated anti-mouse IgG (1:200, Vector Laboratories, Inc., Burlingame, Calif.). The reaction product was visualized with 0.003% hydrogen peroxide and 0.05% 3,3′-diaminobenzidine tetrahydrochloride as a chromogen. Negative controls were incubated in the absence of primary antibodies (not shown). Slides were analyzed on a light microscope (Olympus BX60, Japan) using a MetaMorth Imaging System (Universal Imaging Co., West Chester, Pa.).
To determine whether acetylcholine inhibited macrophage TNF synthesis or macrophage TNF release, monoclonal anti-TNF antibodies were used to label cell-associated TNF in human macrophage cultures. In those experiments (FIG. 3), cells were exposed to either ACh (100 µM), either alone or in the presence of pyridostigmine bromide (1 mM), five minutes before LPS (100 ng/ml) treatment. […]

IL-1β = IL-1β release from LPS-stimulated human macrophage cultures (ELISA); assay type: cell-based; conditions: ACh with pyridostigmine bromide 1 mM, LPS 100 ng/ml, 20 hours (FIG. 5)
Protocol: (§1) To assess specificity, the release of other macrophage-derived cytokines was measured in LPS-stimulated macrophage cultures treated with acetylcholine. In those experiments, human macrophage cultures were incubated with ACh at the indicated concentrations in the presence of pyridostigmine bromide (1 mM) and LPS (100 ng/ml) for 20 hours. IL-1β (FIG. 5), IL-6 (FIG. 6) and IL-10 (FIG. 8) levels were measured in media using commercially available ELISA kits (R&D Systems Inc., Minneapolis, Minn.). IL-18 (FIG. 7) levels were determined by specific ELISA (Medical & Biological Laboratories Co., Ltd., Nagoya, Japan). Each sample was analyzed in triplicate. Data are expressed as Mean.+−.SEM from 4 separate experiments using macrophages prepared from 4 separate healthy donors.

IL-6 = IL-6 release from LPS-stimulated human macrophage cultures (ELISA); assay type: cell-based; conditions: ACh with pyridostigmine bromide 1 mM, LPS 100 ng/ml, 20 hours (FIG. 6)
Protocol: as §1

IL-18 = IL-18 release from LPS-stimulated human macrophage cultures (ELISA); assay type: cell-based; conditions: ACh with pyridostigmine bromide 1 mM, LPS 100 ng/ml, 20 hours (FIG. 7)
Protocol: as §1

IL-10 = IL-10 release from LPS-stimulated human macrophage cultures (ELISA); assay type: cell-based; conditions: ACh with pyridostigmine bromide 1 mM, LPS 100 ng/ml, 20 hours (FIG. 8)
Protocol: as §1

macrophage cultures = test: MTT staining and Trypan blue exclusion of macrophage cultures treated with LPS and acetylcholine; assay type: cell-based, human; conditions: macrophage cultures treated with LPS and acetylcholine (not shown)
IL-1β mRNA = IL-1β mRNA levels, colorimetric microplate assay (Quantikine mRNA); assay type: cell-based, human; conditions: acetylcholine 100 nM, LPS 2 hours; n=3; LPS alone 1974
Source text: (§2) The molecular mechanism of acetylcholine inhibition of IL-1β and IL-6 was investigated further by measuring gene-specific mRNA levels with biotin-labeled capture oligonucleotide probes in a calorimetric microplate assay (Quantikine mRNA, R&D Systems, Inc., Minneapolis, Minn.).

IL-6 mRNA = IL-6 mRNA levels, colorimetric microplate assay (Quantikine mRNA); assay type: cell-based, human; conditions: LPS-stimulated macrophages; n=3; LPS alone 1716
Source text: as §2

[2] = tested on: differentiated human macrophages; test: Acetylcholine suppression of cytokine synthesis (TNF), 'our own studies' compared with macrophage data; assay type: cell-based; conditions: printed as differentiated human macrophages, n=3, read-out: E.C.50 for inhibiting TNF
[3] = tested on: nicotinic or muscarinic acetylcholine receptors
[4] = tested on: Murine RAW 264.7 macrophage-like cells; conditions: nicotine 0.1-100 µM, 5 min before LPS 500 ng/ml, medium collected after 20 hr (FIG. 15)
Protocol: Experiments were performed to determine whether the inhibitory effect of cholinergic agonists on proinflammatory cytokines applied to HMG-1. Murine RAW 264.7 macrophage-like cells (American Type Culture Collection, Rockville, Md., USA) were grown in culture under DMEM supplemented with 10% fetal bovine serum and 1% glutamine. When the cells were 70-80% confluent, the medium was replaced by serum-free OPTI-MEM 1 medium. […] Culture medium was collected after 20 hr. The culture medium was concentrated with a Centricon T 10 filter, then analyzed by western blot, using an anti-HMG-1polyclonal antisera (WO 00/47104) and standard methods. Band densities were determined using a Bio-Rad Imaging densitometer.

[5] = ACh with pyridostigmine bromide 1 mM
[6] = human macrophage cultures, LPS 100 ng/ml for 4 hours (FIG. 1)

For `CC(=O)OCC[N+](C)(C)C.[Cl-]` [acetylcholine, acetylcholine chloride], the EC50 [1, 5] was 20.2 nM, the “inhibition of TNF release” value [1, 6] was “inhibited TNF release in a dose dependent manner” and the “inhibition of TNF release” value ([1]; macrophage culture media conditioned by exposure to LPS for 20 hours (not shown)) was “Comparable inhibition of TNF release”. The “TNF mRNA levels” value (TNF mRNA) was “did not decrease”, the “LPS-stimulated TNF immunoreactivity in macrophages” value (TNF) was “significantly attenuated” and the IL-1β release (IL-1β) was “dose-dependently inhibits the release”. For the same compound, the IL-6 release (IL-6) was “dose-dependently inhibits the release”, the IL-18 release (IL-18) was “dose-dependently inhibits the release” and the IL-10 release (IL-10) was “does not prevent the constitutive release”. The “cytotoxicity (MTT, Trypan blue exclusion)” value (macrophage cultures) was “not due to cytotoxicity”, the “acetylcholine-treated LPS-stimulated IL-1β mRNA” value (IL-1β mRNA) was 2128 attomole/ml and the “acetylcholine-treated LPS-stimulated IL-6 mRNA” value (IL-6 mRNA) was 1872 attomole/ml. For the same compound, the EC50 [2] was 800 nM and the “inhibition of TNF release” value [3] was 80%.

For `CN1[C@@H]2CC[C@H]1C[C@@H](OC(=O)C(CO)c1ccccc1)C2` (some centres unmarked) [atropine], the “TNF production in vehicle-treated cultures” value ([3]; without acetylcholine (not shown)) was “Neither atropine nor α-conotoxin altered TNF production”.

`C[N+](C)(C)CCOC(N)=O` [carbachol] was tested, and the “inhibition of TNF release” value [1, 6] was “Inhibition of TNF was also observed”.

With `C[C@@H]1O[C@H](C[N+](C)(C)C)C[C@H]1O` [muscarine] the EC50 ([1]; P<0.01 vs nicotine or acetylcholine) was 42400 nM, the “inhibition of TNF release” value [1, 6] was “inhibited TNF release in a dose dependent manner” and the “TNF mRNA levels” value (TNF mRNA) was “do not reduce LPS-stimulated TNF mRNA levels”.

With `CN1CCCC1c1cccnc1` (centres unmarked) [nicotine] the EC50 [1, 5] was 8.3 nM, the “inhibition of TNF release” value [1, 6] was “inhibited TNF release in a dose dependent manner” and the “TNF mRNA levels” value (TNF mRNA) was “do not reduce LPS-stimulated TNF mRNA levels”. For the same compound, the HMG-1 production [4] was “inhibited HMG-1 production in a dose-dependent manner”.
